Results reported in US9717737B2, “Vacuolin-1 as an inhibitor of autophagy and endosomal trafficking and the use thereof for inhibiting tumor progression” (The University of Hong Kong, priority 2014, dated 2017).

Tested on: RFP-GFP-LC3 expressing HeLa cells
Assay: RFP-GFP-LC3 (tfLC3) fluorescence image-based autophagy assay
Format: cell-based
Source text: Prompted by the fact that many available autophagy chemical modulators lack either potency or specificity (Kimura et al., 2013), a fluorescence image-based assay was set up to screen small molecules affecting autophagy. HeLa cells, an autophagy competent cell line, were infected with lentiviruses carrying expression cassettes that encode RFP-GFP-LC3 (tfLC3) (Kimura et al., 2007). Thus, the LC3-II positive autophagosomes are labeled with both GFP and RFP signals shown as yellow puncta, and after fusion with lysosomes, autolysosomes are shown as red only puncta because GFP loses its fluorescence in acidic pH.
Next, a panel of small chemicals that are commercially available and have been previously shown to affect vesicle trafficking or organelle morphology were selected and screened for their effects on autophagy regulation in tfLC3 expressing HeLa cells (data not shown).

| Structure (SMILES) | LC3 puncta (yellow = autophagosomes, red only = autolysosomes) |
| --- | --- |
| CCN(CC)CCCC(C)Nc1ccnc2cc(Cl)ccc12 (centres unmarked) [CQ, Chloroquine] | markedly induced the accumulation of yellow puncta only |
| CO/C1=C\C(C)=C\[C@@H](C)[C@@H](O)[C@@H](C)C/C(C)=C/C=C/[C@H](OC)[C@@H]([C@@H](C)[C@@H](O)[C@H](C)[C@@]2(O)C[C@@H](O)[C@H](C)[C@@H](C(C)C)O2)OC1=O [bafilomycin, Bafilomycin A1] | markedly induced the accumulation of yellow puncta only |
